Ends that are not written are not given here.
Tested on: NF-kB
Assay: EMSA of nuclear extracts for basal and LPS induced NF-kB translocation, RAW 264.7 mouse macrophages (second experiment)
Type: cell-based
Details: RAW264.7 cells, LPS in combination with peptide, 30 minutes incubation
Experimental: The transcription factor NF-kB participates in the transcriptional regulation of a variety of genes. Nuclear protein extracts were prepared from LPS and peptide treated RAW264.7 cells or from LPS treated RAW264.7 cells. In order to determine whether the peptide modulates the translocation of NF-kB into the nucleus, on these extracts EMSA was performed. Here we see that indeed peptides are able to modulate the translocation of NF-kB since the amount of labeled oligonucleotide for NF-kB is reduced. […] RAW 264.7 mouse macrophages were cultured in DMEM, containing 10% or 2% FBS, penicillin, streptomycin and glutamine, at 37 °C, 5% CO2. Cells were seeded in a 12-wells plate (3x10^6 cells/ml) in a total volume of 1 ml for 2hours and then stimulated with LPS (E. coli 026:B6; Difco Laboratories, Detroit, MI, USA) and/or gene-regulatory peptide(1 microgr/ml). After 30 minutes of incubation plates were centrifuged and cells were collected for nuclear extracts. Nuclear extracts and EMSA were prepared according to Schreiber et al. Cells were collected in a tube and centrifuged for 5 minutes at 2000 rpm (rounds per minute) at 4°C (Universal 30 RF, Hettich Zentrifuges). […]

circular LQGVLPALPQVVC (also: circular, ring type not given here)
LPS induced translocation of NF-kB: inhibition of LPS induced translocation of NF-kB
